Test results taken from publication PMC1810525, “Antagonism of the prostaglandin D2 receptor CRTH2 attenuates asthma pathology in mouse eosinophilic airway inflammation” (Respiratory Research, 2007).
Read-outs that look alike come from different tables or passages of the source.

Key:
mTP = target: T1, mTP (Mus musculus, UniProt P30987); assay: mTP whole cell competition binding ([3H]SQ29548); conditions: displacement of [3H]SQ29548, HEK cells transfected with mTP
T1 construct: expressed in transfected cells; host or cells: HEK293 (transient, pcDNA3.1(+))
T1 sequence (P30987 1-341): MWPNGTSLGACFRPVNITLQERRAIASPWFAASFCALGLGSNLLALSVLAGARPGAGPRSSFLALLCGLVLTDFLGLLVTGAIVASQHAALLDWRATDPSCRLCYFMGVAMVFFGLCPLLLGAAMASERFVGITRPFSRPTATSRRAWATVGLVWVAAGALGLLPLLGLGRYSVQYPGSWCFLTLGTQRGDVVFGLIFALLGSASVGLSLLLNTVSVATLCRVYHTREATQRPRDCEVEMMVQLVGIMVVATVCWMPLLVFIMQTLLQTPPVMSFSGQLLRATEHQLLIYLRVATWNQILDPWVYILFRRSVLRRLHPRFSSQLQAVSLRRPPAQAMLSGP
Description: (§1) The coding sequence of mCRTH2 (genbank accession no. AF054507) was amplified by PCR from mouse hippocampus cDNA and inserted into the pcDNA3.1(+) expression vector (invitrogen). A HEK293 cell line, stably expressing mCRTH2 (hereafter referred to as mCRTH2-HEK cells) was generated under G418 (Gibco #11811) selection and used as described below in whole cell binding and functional inositol phosphate accumulation assays. The coding sequence of mTP (genbank accession no. D10849) was amplified by PCR from mouse spleen cDNA and inserted into pcDNA3.1(+). HEK293 cells were transiently transfected with mTP as described and assayed after 48 hr as outlined below.
Binding assays were performed essentially as described previously. […] Total and nonspecific binding were determined in the absence and presence of 10 μM PGD2 for mCRTH2 and 10 μM U46619 for mTXA2 receptors.
was performed using the Prism 3.0 software (GraphPad Software, San Diego) as described previously with the following exceptions: Binding data from competition binding assays were normalized to percent of specific binding of [^3H]PGD2 or [^3H]SQ29548 and the Ki was then determined using the Cheng-Prusoff equation Ki = IC50/(1+L/Kd), where L is the concentration of radioactive ligand and Kd is its dissociation constant. […]

mCRTH2 = target: T2, mCRTH2 (Mus musculus, UniProt Q9Z2J6); assay: mCRTH2 whole cell competition binding ([3H]PGD2); conditions: displacement of [3H]PGD2, mCRTH2-HEK cells
T2 construct: expressed in transfected cells
T2 sequence (Q9Z2J6 1-382): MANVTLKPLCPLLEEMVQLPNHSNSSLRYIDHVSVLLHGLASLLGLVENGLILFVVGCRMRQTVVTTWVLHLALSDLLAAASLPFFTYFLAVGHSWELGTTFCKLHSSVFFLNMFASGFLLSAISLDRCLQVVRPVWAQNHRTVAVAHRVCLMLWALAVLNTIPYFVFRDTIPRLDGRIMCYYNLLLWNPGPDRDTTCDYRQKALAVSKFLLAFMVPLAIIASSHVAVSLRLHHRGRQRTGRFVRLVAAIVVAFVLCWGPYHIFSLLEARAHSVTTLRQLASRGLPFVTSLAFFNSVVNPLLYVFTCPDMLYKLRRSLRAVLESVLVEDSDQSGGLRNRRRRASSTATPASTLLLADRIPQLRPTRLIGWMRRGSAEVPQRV
Description: as §1
Binding assays were performed essentially as described previously. In brief, mCRTH2-HEK cells or HEK cells transiently transfected with mTP were seeded into white 96 well plates (Costar #3917) at a density of 30.000 cells/well. About 18–24 hr later, whole cell competition binding experiments were performed using 0.8 nM [^3H]PGD2 (Amersham #TRK734, 166 Ci/mmol) or 0.7 nM [^3H]SQ29548 (PerkinElmer #NET-936, 48.2 Ci/mmol), for mCRTH2 and mTP respectively. Total and nonspecific binding were determined in the absence and presence of 10 μM PGD2 for mCRTH2 and 10 μM U46619 for mTXA2 receptors.
was performed using the Prism 3.0 software (GraphPad Software, San Diego) as described previously with the following exceptions: Binding data from competition binding assays were normalized to percent of specific binding of [^3H]PGD2 or [^3H]SQ29548 and the Ki was then determined using the Cheng-Prusoff equation Ki = IC50/(1+L/Kd), where L is the concentration of radioactive ligand and Kd is its dissociation constant. For Schild analysis, global fitting using the Gaddum/Schild competitive interaction model was applied after the functional concentration-response curves for the agonists PGD2 or U46619 in the absence or presence of various antagonist concentrations were normalized to percent of the maximal response obtained by agonist alone.

[1] = tested on: OVA-challenged BALB/c mice; assay: Mouse model of allergic asthma (OVA), lung tissue eosinophils and mucus cells histology; type: in vivo; conditions: 5 mg/kg orally twice daily days 14 and 15, OVA-challenged mice, 24 hr after last challenge; p < 0.05 vs vehicle
Protocol: Female BALB/c mice about 6 weeks of age (MoB A/S; Ry, Denmark) were kept in well-controlled animal housing facilities and fed ad libitum. The study was approved by the Regional Ethics Committee in Malmoe-Lund, Sweden. All groups of mice (n = 10 in each group) were immunized by intraperitoneal (i.p) injections of ovalbumin (OVA, 10 μg per injection; grade V, Sigma, St Louis, Mo) absorbed to alum adjuvant (Al(OH)3; Sigma) at day 0 as described previously. […] Control animals received saline challenge. Animals were sacrificed 24 hr after the last allergen challenge by pentobarbital i.p followed by bronchoalveolar lavage (BAL) and lung tissue sampling. In preliminary studies it was ascertained that daily allergen challenges for only a few days sufficed to produce a significant airway tissue eosinophilia as well as goblet cell hyperplasia. On days 14 and 15 mice were treated twice daily with TM30089 and ramatroban (BAY3405), 5 mg/kg orally. […] Drugs were administered 30 minutes before and 4 hr after each challenge. The dose of ramatroban was selected in accord with previous reports. Furthermore, ramatroban and TM30089 differ chemically merely by the move of one carbon atom from the carboxyl side chain in ramatroban to the sulfonamide nitrogen in TM30089 - thus they have the same molecular weight and other important structural features in common - so it is highly reasonable to assume they will have very similar PK properties. […] Eosinophils were detected by histochemical visualization of cyanide-resistant eosinophil peroxidase (EPO) activity. In brief, 5 μm cryo sections were incubated for 8 min at room temperature in PBS buffer (pH 7.4) supplemented with 3.3-diaminobenzidine tetrahydrochloride (60 mg/100 ml; Sigma), 30% H2O2 (0.3 ml/100 ml), and NaCN (120 mg/100 ml). Slides were then rinsed in tap water and mounted in […] medium (Merck, Darmstadt, Germany). […] Although the focus in this study was on tissue pathology BAL was also carried out (see below). Histology analyses were performed and quantified in a blinded manner. To compare histological data, the non-parametric Kruskal-Wallis test and followed by Connover's test was applied using Analyze ItTM (Analyse-it software Ltd., Leeds, UK). Data are expressed as mean ± SEM. A value of p < 0.05 was considered statistically significant.

DP = conditions: cited from earlier work

| SMILES | pKi mTP (mTP) | pKi mCRTH2 (mCRTH2) | Ki (mCRTH2; printed in brackets after pKi, read-out: Ki mCRTH2) [nM] | allergen challenge-induced mucus cell hyperplasia [1] | allergen challenge-induced peribronchial lung tissue eosinophilia [1] | preference for CRTH2 over DP (DP) [fold] | Ki (mTP; read-out: pKi mTP (converted)) [nM] | Ki (mCRTH2; read-out: pKi mCRTH2 (converted)) [nM] |
| --- | --- | --- | --- | --- | --- | --- | --- | --- |
| CN(C1CCc2c(c3ccccc3n2CC(=O)O)C1)S(=O)(=O)c1ccc(F)cc1 (stereo not shown) [TM30089] | 5.30 ± 0.03 | 8.96 ± 0.05 | 1.1 | significantly diminished | significantly diminished | > 1000 |  |  |
| O=C(O)CCn1c2c(c3ccccc31)C[C@H](NS(=O)(=O)c1ccc(F)cc1)CC2 [ramatroban, reference compound] |  |  |  | significantly diminished | significantly diminished |  | 1.2 | 4.17 |
